This passage reports IC90, Resistance and Ki results from ChEMBL document CHEMBL1130161, “Cyclic urea amides: HIV-1 protease inhibitors with low nanomolar potency against both wild type and protease inhibitor resistant mutants of HIV” (J Med Chem, 1997).

The structures appear in SMILES notation.

For experiment [1], the target named is Human immunodeficiency virus type 1 protease (Human immunodeficiency virus 1) (UniProt Q72874). The experiment is described as follows: Inhibitory concentration against accumulation of viral p24 antigen following infection of MT-4 cells. As to conditions: MT4. It counts as functional, cell-based.
Experiment [2] concerns Human immunodeficiency virus. The experiment is described as follows: Resistance of constructed mutant […]/47V/50V virus was calculated as (IC90 for a mutant virus / IC90 of wt HXB2 virus). The class given is functional.
In experiment [3] the test system is Human immunodeficiency virus. The experiment is described as follows: Resistance of constructed mutant 48V/90M virus was calculated as (IC90 for a mutant virus / IC90 of wt HXB2 virus). It counts as functional.
Experiment [4] deals with Human immunodeficiency virus. The experiment is described as follows: Resistance of constructed mutant 82A virus was calculated as (IC90 for a mutant virus / IC90 of wt HXB2 virus). It counts as functional.
Experiment [5] can be described thus: Resistance of constructed mutant 82F virus was calculated as (IC90 for a mutant virus / IC90 of wt HXB2 virus). It counts as functional.
Experiment [6] has as its system Human immunodeficiency virus. The experiment is described as follows: Resistance of constructed mutant ABT538 virus was calculated as (IC90 for a mutant virus / IC90 of wt HXB2 virus). It counts as functional.
In experiment [7] the test system is Human immunodeficiency virus. The experiment is described as follows: Resistance of constructed mutant MK639 virus was calculated as (IC90 for a mutant virus / IC90 of wt HXB2 virus). It counts as functional.
Experiment [8] concerns Human immunodeficiency virus. The experiment is described as follows: Resistance of constructed mutant 84V virus was calculated as (IC90 for a mutant virus / IC90 of wt HXB2 virus). It counts as functional.
In experiment [9] the target is Human immunodeficiency virus type 1 protease (Human immunodeficiency virus 1, UniProt Q72874). The experiment is described as follows: Binding affinity to inhibit the purified wild-type HIV-1 Protease.

The term IC90 denotes the point of the concentration-response curve where the effect stands at 90%. As to `O=C(Nc1nccs1)c1cccc(CN2C(=O)N(Cc3cccc(C(=O)Nc4nccs4)c3)[C@H](Cc3ccccc3)[C@H](O)[C@@H](O)[C@H]2Cc2ccccc2)c1`, the 90% effect concentration (IC90) in experiment [1] was 4.2 nM. For the same compound, the Resistance in experiment [2] is listed as 23; in experiment [3] it was 0.2; in [4] it was 2.2; in [5] it was 0.9; in experiment [6] it was 24; in [7], 8.7. The Resistance in experiment [8] is listed as 1.2.

In the case of `CC(C)c1nc(CN(C)C(=O)N[C@H](C(=O)N[C@@H](Cc2ccccc2)C[C@H](O)[C@H](Cc2ccccc2)NC(=O)OCc2cncs2)C(C)C)cs1` [RITONAVIR], the Resistance in experiment [2] is 6; in experiment [3], 5; in [4] it was 7.1; in [5], 8.9; in experiment [6], 30; in experiment [7], 5.5. Also, the Resistance in experiment [8] is on record as 2.4.

Consider `O=C(Nc1nc2ccccc2[nH]1)c1cccc(CN2C(=O)N(Cc3cccc(C(=O)Nc4nc5ccccc5[nH]4)c3)[C@H](Cc3ccccc3)[C@H](O)[C@@H](O)[C@H]2Cc2ccccc2)c1`, for which it took 5.1 nM to reach the 90% level in experiment [1] (IC90). Further, the Resistance is on record as 1 in [2]; 0.3 in [3]; 0.8 in experiment [4]; 0.3 in experiment [5]; 1.2 in [6]; 0.7 in experiment [7]. Also, the Resistance in experiment [8] is recorded as 0.6.

In experiment [1], `O=C1N(Cc2ccc(CO)cc2)[C@H](Cc2ccccc2)[C@H](O)[C@@H](O)[C@@H](Cc2ccccc2)N1Cc1ccc(CO)cc1` [DMP-323] returned an IC90 of 95 nM. In addition, the Resistance in experiment [2] is reported as 11; in experiment [3], 0.3; in experiment [4], 2.8; in experiment [5], 7.1; in experiment [6], 93; in experiment [7], 18. For the same compound, the Resistance in experiment [8] was 22.

One may read the Ki as the equilibrium dissociation constant of an inhibitor or competing ligand from its target. The low end stands for tighter binding, the high end for weaker binding. In experiment [1], `CC(C)[C@H](NC(=O)OCc1ccccc1)C(=O)N[C@@H](Cc1ccccc1)[C@H](O)[C@@H](O)[C@@H](Cc1ccccc1)NC(=O)[C@H](NC(=O)OCc1ccccc1)C(C)C` returned an IC90 of 195 nM. Besides, the affinity in [9], expressed as Ki, was 0.25 nM. Further, the Resistance in experiment [2] is listed as 6.5; in [3], 1.3; in experiment [4], 6; in experiment [5] it was 1.8; in [6], 13; in experiment [7], more than 150. Besides, the Resistance in experiment [8] is reported as 2.1.

`Nc1cccc(CN2C(=O)N(Cc3cccc(N)c3)[C@H](Cc3ccccc3)[C@H](O)[C@@H](O)[C@H]2Cc2ccccc2)c1` [MOZENAVIR] displayed an IC90 in experiment [1] of 120 nM. In [9], the affinity corresponds to a Ki of 0.34 nM. Besides, the Resistance in [2] is given as 7.5; in experiment [3], 1.5; in [4], 2.5; in experiment [5], 5.3; in [6], 49; in [7] it was 27. Besides, the Resistance in experiment [8] was 9.9.

`O=C(Nc1nccs1)c1cccc(CN2C(=O)N(Cc3ccccc3)[C@H](Cc3ccccc3)[C@H](O)[C@@H](O)[C@H]2Cc2ccccc2)c1`: the IC90 in experiment [1] is 74 nM. This compound also returned a Ki in experiment [9] of 0.074 nM. The Resistance in experiment [2] is recorded as 10.2; in experiment [3], 1.9; in [4], 4.9; in [5], 3; in experiment [6], 31; in [7], 10. In experiment [8], the Resistance is recorded as 7.2.

Consider `O=C(Nc1ncc[nH]1)c1cccc(CN2C(=O)N(Cc3ccccc3)[C@H](Cc3ccccc3)[C@H](O)[C@@H](O)[C@H]2Cc2ccccc2)c1`, for which the concentration for an effect of 90% (IC90) in experiment [1] is 21 nM. Also, the Ki in experiment [9] was 0.033 nM. For the same compound, the Resistance in [3] is listed as 0.6; in [4], 1; in [5], 0.5; in experiment [6], 29; in [7], 15; in [8], 2.9.

The compound `CC(C)(C)NC(=O)[C@@H]1C[C@@H]2CCCC[C@@H]2CN1C[C@@H](O)[C@H](Cc1ccccc1)NC(=O)[C@H](CC(N)=O)NC(=O)c1ccc2ccccc2n1` came in with an IC90 in experiment [1] of 15 nM. In addition, the Resistance in experiment [3] is 20; in [4], 0.9; in [5], 0.4; in [6], 0.6; in [7], 5.3; in experiment [8] it was 0.7.

In turn, `O=C(Nc1nccs1)c1cccc(CN2C(=O)N(CC3CC3)[C@H](Cc3ccccc3)[C@H](O)[C@@H](O)[C@H]2Cc2ccccc2)c1` showed an IC90 in experiment [1] of 40 nM. Also, the Resistance in experiment [2] was 11; in experiment [3], 0.9; in experiment [4] it was 1.8; in experiment [5], 4.1; in [6] it was 41; in experiment [7], 18.5. In addition, in [8], the Resistance is given as 6.1.

Turning to `O=C(Nc1nc2ccccc2[nH]1)c1cccc(CN2C(=O)N(CC3CC3)[C@H](Cc3ccccc3)[C@H](O)[C@@H](O)[C@H]2Cc2ccccc2)c1`, it took 17 nM to reach the 90% level in experiment [1] (IC90). This compound also returned a Ki in experiment [9] of 0.037 nM. Further, the Resistance in [2] was 2.1; in [3], 1.9; in experiment [4], 1.9; in [5] it was 2.1; in [6], 86; in [7] it was 26. Besides, the Resistance in experiment [8] is reported as 8.4.

With `CC(C)CN(C[C@@H](O)[C@H](Cc1ccccc1)NC(=O)O[C@H]1CCOC1)S(=O)(=O)c1ccc(N)cc1`, the IC90 in experiment [1] was 81 nM. Besides, the Resistance in experiment [2] is 39; in [3] it was 1.1; in experiment [4] it was 2.2; in experiment [5], 1.9; in experiment [6], 13; in [7], 3.8. For the same compound, in [8], the Resistance is 1.5.

On to `O=C1N(CC2CC2)[C@H](Cc2ccccc2)[C@H](O)[C@@H](O)[C@@H](Cc2ccccc2)N1CC1CC1`, for which the IC90 in experiment [1] was 2100 nM. The Resistance in experiment [2] is 1.7; in experiment [3], 1.3; in experiment [4], 1.4; in experiment [5], 4; in [6] it was 7.2; in experiment [7], 11. Moreover, in experiment [8], the Resistance is 6.6.

Compound `O=C(Nc1ncc[nH]1)c1cccc(CN2C(=O)N(CC3CC3)[C@H](Cc3ccccc3)[C@H](O)[C@@H](O)[C@H]2Cc2ccccc2)c1` gave an IC90 in [1] of 28 nM. The same compound returned a Ki in [9] of 0.016 nM. Also, the results for the Resistance in experiment [6] and in [7] were 83 and 12, respectively.

Take `CCCCN1C(=O)N(Cc2cccc(C(=O)Nc3ncc[nH]3)c2)[C@H](Cc2ccccc2)[C@H](O)[C@@H](O)[C@H]1Cc1ccccc1`: in [1], the 90% effect level (IC90) was put at 18 nM. In [9], the Ki is 0.025 nM. Besides, the Resistance is reported as 1 in [3]; 1.4 in experiment [4]; 14.5 in [5]; 27 in [6]; 14.5 in experiment [7]; 4.2 in experiment [8].

Consider `O=C(Nc1ncc[nH]1)c1cccc(CN2C(=O)N(Cc3cccc(C(=O)Nc4ncc[nH]4)c3)[C@H](Cc3ccccc3)[C@H](O)[C@@H](O)[C@H]2Cc2ccccc2)c1`, for which the 90% effect level in [1] (IC90) was put at 19 nM. Further, the Resistance in experiment [2] is listed as 0.4; in experiment [3], 0.1; in experiment [4], 2.7; in experiment [5], 1.6; in experiment [6], 0.2; in experiment [7], 0.4. In [8], the Resistance is 0.7.

With `CC(C)(C)NC(=O)[C@@H]1CN(Cc2cccnc2)CCN1C[C@@H](O)C[C@@H](Cc1ccccc1)C(=O)N[C@H]1c2ccccc2C[C@H]1O.O`, in [1], the IC90 was 28 nM. Moreover, the Resistance in [2] is reported as 1.8; in experiment [3] it was 3.6; in experiment [4], 2.5; in experiment [5] it was 2.8; in [6], 6.5; in [7], 18. Further, the Resistance in experiment [8] is on record as 0.5.
